According to patent US6114381A, “Non-heterocyclic β-phenyl-α-aminopropionic acid n-phenyl amides for treatment of neurotoxic injury” (priority 1998, dated 2000):
Where a name gives a salt, the structure may show the parent alone. Read-outs that look alike come from different tables or passages of the source.

Assays:
NMDA [1] = conditions: Berry et al, Eur. J. Pharm. 1983; binding and behavioral data; cited from earlier work
[2] = test system: rat cerebral cortical membranes; conditions: Goldman et al, FEBS Lett.; cited from earlier work
PCP receptors = experiment: Radioreceptor assay (3H-TCP displacement, rat brain membranes); conditions: read-out: Ki apparent, 1 nM 3H-TCP, whole rat brain membranes, 1 h incubation, Cheng & Prusoff
[3] = Behavioral assay (stereotyped behavior, PCP rating scale); type: in vivo, rat (male Sprague-Dawley)
Method: Compound No. 4 was tested by an in vivo assay which determined stereotypic behavior in rats treated with the compound. Male Sprague-Dawley rats weighing 200 to 250 g were used in the behavioral experiments. Each rat was used only once. Rats were anesthetized lightly with ether before a 20-gauge needle was used to make a hole in the rat's skull for i.c.v. injection of drugs at a later date. These rats were allowed to recover for at least 1 day before being used in the behavioral assays. On the day of the experiement, rats were placed individually into plastic rat cages and allowed at least 1 hr to acclimate before testing. Drugs were administered to rats in a random, single-blind fashion. Behavioral ratings were taken at 5-min intervals up to 1 hr after drug administration (i.p.) using the PCP rating scale as described by Sturgeon et al [Sturgeon, R. D., Fessler, R. G. and Meltzer, H. Y., "Behavioral Rating Scales for Accessing Phencyclidine-Induced Locomotor Activity. […] Dose-response curves for each treatment were determined at the time of maximal behavioral effect. […] ED50 values and dose-response curves were evaluated using a computerized Finney assay [Statistical Methods in Biological Assays, 2nd Edn., Hatner Pub. […] The ability of the Compound No. 4 to induce stereotyped behavior was assessed at 2.5, 5 and 10 minutes and thereafter every 5 min up to 1 hr after i.p. administration.

NMDA [4] = conditions: Anis et al, Br. J. Pharmacol. 1983; cited from earlier work
[5] = test system: CAl region of the hippocampus; experiment: Forebrain ischemia assay (carotid occlusion, CA1 hippocampal cell loss); type: in vivo, Mongolian gerbil; conditions: 30 mg/kg i.p. 30 min prior to carotid occlusion; 7 days after; n=6 vs 69 saline gerbils; Mann-Whitney U, p<0.005
Method: Male Mongolian gerbils, 50-70 gm, were used as subjects. Compound No. 4 (30 mg/kg) was injected i.p. 30 minutes prior to carotid occlusion into 6 gerbils. In preparation for surgical procedures, the animals were lightly anesthetized with methoxyflurane and placed upside down on a heated pad with the animal's snout within a nosecone. A mixture of 70 parts nitrous oxide, 30 parts oxygen and 0.5 part halothane was circulated through the nosecone to provide continuous anesthesia throughout the surgical procedure. A midline incision was made in the neck and the carotid arteries were exposed. A length of suture thread was placed under each carotid. The thread was then tightened around each carotid and pressure applied to the thread to insure flow was occluded. Flow was occluded for 4-5 minutes and then the thread was removed. The carotids were visually inspected to confirm that reflow had occurred. The wound was then closed with autoclips and the gerbils allowed to recover. Following surgery, the gerbils were kept alive for 7 days. They were anesthetized with 100 mg/kg sodium pentobarbital and perfused transcardially with saline (with heparin) followed by buffered formalin. The brain was removed, trimmed and prepared for histological processing. Sections (10 microns) were stained with thionin. […]

Row | SMILES | Ki (PCP receptors) [nM] | other results
1 | CC1CCCN(C2(c3ccccc3)CCCCC2)C1 (single isomer, unassigned; (+)) [(+)-PCMP, (+)-1-(1-phenylcyclohexyl)-3-methylpiperidine] | – | stereoselective effect over corresponding isomer in reducing the excitatory action of NMDA (NMDA [1]): confirmed; inhibition of specific binding of [3H]PCP [2]: potent inhibitor
2 | COc1cc(C)c(C[C@H](N)C(=O)N2CCCc3ccccc32)c(C)c1 [Compound No. 10, 1-[2S-amino-3-(4-methoxy-2,6-dimethylphenyl)-1-oxopropyl]-1,2,3,4-tetrahydroquinoline, monohydrochloride] | 4500 | –
3 | Cc1cc(O)cc(C)c1C[C@H](N)C(=O)N(C)c1ccccc1 [Compound No. 3, αS-amino-4-hydroxy-N,2,6-trimethyl-N-phenylbenzenepropanamide, monohydrochloride] | 2600 | –
4 | Cc1cc(O)cc(C)c1C[C@H](N)C(=O)N1CCCc2cccc(O)c21 [Compound No. 11, 1-[2S-amino-3-(4-hydroxy-2,6-dimethylphenyl)-1-oxopropyl]-1,2,3,4-tetrahydro-8-hydroxyquinoline, monohydrochloride] | 420 | –
5 | CC1CCC(c2ccccc2)(N2CCCCC2)CC1 (stereo not drawn) [cis-N-(1-phenyl-4-methylcyclohexyl)piperidine] | – | stereoselective effect over corresponding isomer in reducing the excitatory action of NMDA (NMDA [1]): confirmed
6 | c1csc(C2(N3CCCCC3)CCCCC2)c1 [TCP, reference compound] | 20 | –
7 | Cc1cc(O)ccc1C[C@H](N)C(=O)N1CCCc2ccccc21 [Compound No. 2, 1-[2S-amino-3-(4-hydroxy-2-methylphenyl)-1-oxopropyl]-1,2,3,4-tetrahydroquinoline, monohydrochloride] | 800 | –
8 | Cc1cc(O)cc(C)c1C[C@H](N)C(=O)N1Cc2ccccc2CCc2ccccc21 [Compound No. 12, 5-[2S-amino-3-(4-hydroxy-2,6-dimethylphenyl)-1-oxopropyl]-5,6,11,12-tetrahydrodibenz[b,f]azocine, monohydrochloride] | 20000 | –
9 | N[C@@H](Cc1ccc(O)cc1)C(=O)N1CCCc2ccccc21 [Compound No. 1, 1-[2S-amino-3-(4-hydroxyphenyl)-1-oxopropyl]-1,2,3,4-tetrahydroquinoline, monohydrochloride] | 7100 | –
10 | Cc1cc(O)cc(C)c1C[C@H](N)C(=O)N1CC(C)Cc2ccccc21 (single isomer, unassigned) [Compound No. 7, 1-[2S-amino-3-(4-hydroxy-2,6-dimethylphenyl)-1-oxopropyl]-1,2,3,4-tetrahydro-3-methylquinoline, hydrochloride] | – | Ki (PCP receptors; hydrochloride): 880 nM
11 | Cc1cc(O)cc(C)c1C[C@@H](N)C(=O)N1CCCc2ccccc21 [Compound No. 5, 1-[2R-amino-3-(4-hydroxy-2,6-dimethylphenyl)-1-oxopropyl]-1,2,3,4-tetrahydroquinoline, monohydrochloride] | 100 | –
12 | c1ccc(C2(N3CCCCC3)CCCCC2)cc1 [PCP, Phencyclidine, reference compound] | 96 | time of peak effects (stereotyped behavior) ([3]; PCP 2.0-32 mg/kg i.p.): 15 min; reduction of excitatory effects of NMDA as compared to KA and QUIS (NMDA [4]): reduce selectively the excitatory effects of NMDA
13 | Cc1cc(O)cc(C)c1C[C@H](N)C(=O)N1CCc2ccccc21 [Compound No. 8, 1-[2S-amino-3-(4-hydroxy-2,6-dimethylphenyl)-1-oxopropyl]-2,3-dihydro-1H-indole, monohydrochloride] | 1450 | –
14 | Cc1cc(O)cc(C)c1C[C@H](N)C(=O)N1CC(C)Cc2ccccc21 (single isomer, unassigned) [Compound No. 6, 1-[-2S-amino-3-(4-hydroxy-2,6-dimethlyphenyl)-1-oxopropyl]-1,2,3,4-tetrahydro-3-methylquinoline, hydrochloride] | – | Ki (PCP receptors; hydrochloride): 240 nM
15 | COc1ccc2c(c1)CCCN2C(=O)[C@@H](N)Cc1c(C)cc(O)cc1C [Compound No. 9, 1-[2S-amino-3-(4-hydroxy-2,6-dimethylphenyl)-1-oxopropyl]-1,2,3,4-tetrahydro-6-methoxyquinoline, monohydrochloride] | 4100 | –
16 | CNC1(c2ccccc2Cl)CCCCC1=O (stereo not shown) [ketamine] | – | reduction of excitatory effects of NMDA as compared to KA and QUIS (NMDA [4]): reduce selectively the excitatory effects of NMDA
17 | Cc1cc(O)cc(C)c1C[C@H](N)C(=O)N1CCCc2ccccc21 [Compound No. 4, 1-[2S-amino-3-(4-hydroxy-2,6-dimethylphenyl)-1-oxopropyl]-1,2,3,4-tetrahydroquinoline, monohydrochloride] | 16 | ED50 ([3]; Rattus norvegicus, ip, rats, PCP rating scale, at time of maximal effect, read-out: ED50 for induction of stereotyped behavior): 11 mg/kg; cell loss in CA1 [5]: significantly reduced
